Several values for one entry are separate records, joined by “and”; a condition that tells them apart may be missing. Equal entries are not always repeated.
Tests used:
Type in all cases: cell-based
[1] = system: Staphylococcus aureus (ATCC 25923); assay: Disk sensitivity test (modified Kirby-Bauer), S. aureus;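 also: Compound-loaded filter disks on LB agar plates seeded with a confluent bacterial lawn, compound dissolved in DMSO, plates kept overnight at 37 °C, then inhibition zone around disk measured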
Bacillus subtilis W168 [2] = assay: Disk sensitivity test (modified Kirby-Bauer), B. subtilis;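 also: Compound-loaded filter disks on LB agar plates seeded with a bacterial lawn, plates held overnight at 37 °C, then the clear zone around each disk measured, compounds in DMSO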
Procedure: (§1) Filter disks were provided as sterile filter paper (about 6 mm in diameter) and spotted with 20 μL of a selected compound. Each compound was initially dissolved in dimethylsulfoxide (DMSO); any subsequent dilutions were also made in DMSO. Each filter was placed on an LB agar plate spread with 100 μL of a bacterial culture that had been grown overnight in suitable LB broth. Plates were incubated overnight at 37° C., after which, the extent of growth inhibition around each filter disk was measured. Bacterial strains included Staphylococcus aureus (ATCC 25923), Pseudomonas aeruginosa PAO1, Bacillus subtilis W168 and Escherichia coli HB101. […] The latter two strains are non-pathogenic Gram-positive and Gram-negative bacterial strains, respectively.

[3] = system: Pseudomonas aeruginosa PAO1; assay: Disk sensitivity test (modified Kirby-Bauer), P. aeruginosa;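 also: Compound-loaded filter disks on LB agar lawns, DMSO as solvent, zone of inhibition around each disk read after overnight incubation at 37 °C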
Procedure: as §1

Escherichia coli HB101 [4] = assay: Disk sensitivity test (modified Kirby-Bauer), E. coli;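 also: filter disk loaded with compound in DMSO laid on an LB agar bacterial lawn, kept overnight at 37 °C, then the inhibition zone around the disk is measured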
Procedure: as §1

[5] = system: Staphylococcus aureus (ATCC 25923); assay: Minimum inhibitory concentration in LB broth, S. aureus; settings: for Relative to AgNO3: efficacy per mole from MIC values
Bacillus subtilis W168 [6] = assay: Minimum inhibitory concentration in LB broth, B. subtilis; settings: for Relative to AgNO3: efficacy per mole from MIC values
[7] = system: Pseudomonas aeruginosa PAO1; assay: Minimum inhibitory concentration in LB broth, P. aeruginosa; settings: for Relative to AgNO3: efficacy per mole from MIC values
Escherichia coli HB101 [8] = assay: Minimum inhibitory concentration in LB broth, E. coli; settings: for Relative to AgNO3: efficacy per mole from MIC values;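 as to all read-outs here: broth dilution MIC, test compounds first taken up in DMSO, then serially diluted in LB medium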
[9] = system: Gram positive and Gram negative bacteria; assay: Antimicrobial activity, summary of TABLES 16-18
Procedure: The new class of fluorinated triazapentadiene compounds with and without metal complexation as described herein were analyzed for antibacterial activity against several bacterial strains (both Gram positive and Gram negative). Methods for antimicrobial analysis included a modified Kirby-Bauer method and a determination of their minimum inhibitory concentrations. In brief, the modified Kirby-Bauer method relied on placement of a filter disk impregnated with a desired compound on a solid growth medium. Bacteria were grown to a confluent lawn and the extent of growth inhibition was measured (e.g., as an extent/percentage of a clear zone on the disk and/or solid medium).
For MIC assessment, compounds were initially dissolved in DMSO and serial dilutions of soluble compounds were made in LB broth.

Compound | Diameter of the zone of growth inhibition ([1]; 5.7 × 10^0 mM) [mm] | Diameter of the zone of growth inhibition ([1]; 5.7 × 10^1 mM) [mm] | Diameter of the zone of growth inhibition ([1]; 5.7 × 10^−1 mM) [mm] | Diameter of the zone of growth inhibition ([1]; 5.7 × 10^−2 mM) [mm] | Diameter of the zone of growth inhibition ([1]; 5.7 × 10^−3 mM) [mm] | Diameter of the zone of growth inhibition ([1]; 5.7 × 10^−4 mM) | Diameter of the zone of growth inhibition ([1]; 5.7 × 10^−5 mM) | Diameter of the zone of growth inhibition (Bacillus subtilis W168 [2]; 5.7 × 10^0 mM) [mm] | Diameter of the zone of growth inhibition (Bacillus subtilis W168 [2]; 5.7 × 10^1 mM) [mm] | Diameter of the zone of growth inhibition (Bacillus subtilis W168 [2]; 5.7 × 10^−1 mM) [mm] | Diameter of the zone of growth inhibition (Bacillus subtilis W168 [2]; 5.7 × 10^−2 mM) [mm] | Diameter of the zone of growth inhibition (Bacillus subtilis W168 [2]; 5.7 × 10^−3 mM) [mm] | Diameter of the zone of growth inhibition (Bacillus subtilis W168 [2]; 5.7 × 10^−4 mM) [mm] | Diameter of the zone of growth inhibition (Bacillus subtilis W168 [2]; 5.7 × 10^−5 mM) [mm] | Diameter of the zone of growth inhibition (Bacillus subtilis W168 [2]; 5.7 × 10^−6 mM) [mm] | Diameter of the zone of growth inhibition (Bacillus subtilis W168 [2]; 5.7 × 10^−7 mM) | Diameter of the zone of growth inhibition ([3]; 5.7 × 10^0 mM) [mm] | Diameter of the zone of growth inhibition ([3]; 5.7 × 10^1 mM) [mm] | Diameter of the zone of growth inhibition ([3]; 5.7 × 10^−1 mM) [mm] | Diameter of the zone of growth inhibition ([3]; 5.7 × 10^−2 mM) [mm] | other results
FC(F)(F)C(F)(F)C(F)(F)C(=Nc1c(Cl)cccc1Cl)N=C(Nc1c(Cl)cccc1Cl)C(F)(F)C(F)(F)C(F)(F)F [[N{(C3F7)C(2,6-Cl2C6H3)N}2]H] | 20.0 | 13.0 | 16.0 | 15.0 | 7.0 | 7.0 mm | 8.0 mm | 19.0 | 21.0 | 18.5 | 19.0 | 13.0 | 8.5 | 7.0 | 7.5 | 6.0 (NZ) mm | 8.0 | 9.0 | 8.0 | 8.0 | Diameter of the zone of growth inhibition ([1]; 5.7 × 10^−6 mM): 6.0 (NZ) mm; Diameter of the zone of growth inhibition ([1]; 5.7 × 10^−7 mM): 6.0 (NZ) mm; Diameter of the zone of growth inhibition ([3]; 5.7 × 10^−3 mM): 7.0 mm; Diameter of the zone of growth inhibition (Escherichia coli HB101 [4]; 5.7 × 10^0 mM): 8.0 mm; Diameter of the zone of growth inhibition (Escherichia coli HB101 [4]; 5.7 × 10^1 mM): 9.0 mm; Diameter of the zone of growth inhibition (Escherichia coli HB101 [4]; 5.7 × 10^−1 mM): 8.0 mm; Diameter of the zone of growth inhibition (Escherichia coli HB101 [4]; 5.7 × 10^−2 mM): 8.0 mm; Diameter of the zone of growth inhibition (Escherichia coli HB101 [4]; 5.7 × 10^−3 mM): 6.0 (NZ) mm; MIC [5]: 7.80 μg/ml and 2.12 × 10^−3 mM; Relative to AgNO3 [5]: 6.57; MIC (Bacillus subtilis W168 [6]): 4.27 × 10^−1 μg/ml and 4.59 × 10^−4 mM; Relative to AgNO3 (Bacillus subtilis W168 [6]): 320.26; MIC [7]: >16671.80 μg/ml and >23.92 mM; Relative to AgNO3 [7]: <7.69 × 10^−4; MIC (Escherichia coli HB101 [8]): >16671.80 μg/ml and >23.92 mM; Relative to AgNO3 (Escherichia coli HB101 [8]): <2.46 × 10^−3; antimicrobial activity (in words) [9]: Effective
Fc1cccc(C(F)(F)F)c1N=C(N=C(Nc1c(F)cccc1C(F)(F)F)C(F)(F)C(F)(F)C(F)(F)F)C(F)(F)C(F)(F)C(F)(F)F [[N{(C3F7)C(2-F,6-(CF3)C6H3)N}2]H] | 36.0 | 47.5 | 34.0 | 9.0 | 8.0 | 6.0 (NZ) mm | 6.0 (NZ) mm | 85.0 | 100.0 | 50.0 | 30.0 | 13.5 | 7.0 | 8.0 | 8.0 | 7.5 mm | 8.5 | 9.0 | 8.0 | 8.0 | Diameter of the zone of growth inhibition ([3]; 5.7 × 10^−3 mM): 8.0 mm; Diameter of the zone of growth inhibition ([3]; 5.7 × 10^−4 mM): 7.0 mm; Diameter of the zone of growth inhibition ([3]; 5.7 × 10^−5 mM): 6.0 (NZ) mm; Diameter of the zone of growth inhibition (Escherichia coli HB101 [4]; 5.7 × 10^0 mM): 8.5 mm; Diameter of the zone of growth inhibition (Escherichia coli HB101 [4]; 5.7 × 10^1 mM): 9.0 mm; Diameter of the zone of growth inhibition (Escherichia coli HB101 [4]; 5.7 × 10^−1 mM): 8.0 mm; Diameter of the zone of growth inhibition (Escherichia coli HB101 [4]; 5.7 × 10^−2 mM): 7.0 mm; Diameter of the zone of growth inhibition (Escherichia coli HB101 [4]; 5.7 × 10^−3 mM): 7.0 mm; Diameter of the zone of growth inhibition (Escherichia coli HB101 [4]; 5.7 × 10^−4 mM): 7.0 mm; Diameter of the zone of growth inhibition (Escherichia coli HB101 [4]; 5.7 × 10^−5 mM): 7.0 mm; MIC [5]: 1.55 μg/ml and 1.06 × 10^−3 mM; Relative to AgNO3 [5]: 34.71; MIC (Bacillus subtilis W168 [6]): 1.60 × 10^−1 μg/ml and 2.19 × 10^−4 mM; Relative to AgNO3 (Bacillus subtilis W168 [6]): 671.23; MIC [7]: 2912.70 μg/ml and 3.98 mM; Relative to AgNO3 [7]: 4.62 × 10^−3; MIC (Escherichia coli HB101 [8]): 2912.70 μg/ml and 3.98 mM; Relative to AgNO3 (Escherichia coli HB101 [8]): 1.48 × 10^−2; antimicrobial activity (in words) [9]: Effective
